Measured values published in the NIST ThermoML archive (doi:10.1021/je800012v).

Test: xn = mol fraction of the nth substance listed
Conditions: Liquid

CCCCCl [1-chlorobutane] + CCCCCC
mass density [kg/m3]
Conditions | x1 = 0.1099 | x1 = 0.212 | x1 = 0.2925 | x1 = 0.316 | x1 = 0.405 | x1 = 0.4978 | x1 = 0.5975 | x1 = 0.6869 | x1 = 0.8294 | x1 = 0.9025
303.15 K, 15000 kPa | – | – | – | – | – | 763.87 | 786.55 | 807.83 | 843.86 | 863.22
303.15 K, 20000 kPa | 689.49 | 708.98 | 724.92 | 729.73 | 748.24 | 768.43 | 791.14 | 812.44 | 848.41 | 867.82
303.15 K, 25000 kPa | 693.71 | 713.22 | 729.21 | 733.98 | 752.58 | 772.8 | 795.51 | 816.83 | 852.75 | 872.22
303.15 K, 30000 kPa | 697.71 | 717.27 | 733.29 | 738.06 | 756.71 | 776.94 | 799.69 | 821.01 | 856.96 | 876.44
303.15 K, 35000 kPa | 701.46 | 721.06 | 737.11 | 741.91 | 760.56 | 780.82 | 803.62 | 824.94 | 860.94 | 880.41
313.15 K, 100 kPa | 660.25 | 679.39 | 695.16 | 699.82 | 718.21 | 738.18 | 760.7 | 781.81 | 817.54 | 836.89
313.15 K, 2500 kPa | 663.22 | 682.37 | 698.14 | 702.79 | 721.17 | 741.14 | 763.65 | 784.75 | 820.43 | 839.76
313.15 K, 5000 kPa | 666.15 | 685.31 | 701.06 | 705.74 | 724.11 | 744.08 | 766.58 | 787.66 | 823.33 | 842.65
313.15 K, 10000 kPa | 671.67 | 690.86 | 706.6 | 711.27 | 729.65 | 749.65 | 772.1 | 793.2 | 828.82 | 848.11
313.15 K, 15000 kPa | 676.77 | 695.99 | 711.76 | 716.43 | 734.82 | 754.83 | 777.29 | 798.39 | 833.99 | 853.27
313.15 K, 20000 kPa | 681.54 | 700.78 | 716.6 | 721.27 | 739.68 | 759.7 | 782.18 | 803.3 | 838.9 | 858.17
313.15 K, 25000 kPa | 686.03 | 705.32 | 721.16 | 725.85 | 744.28 | 764.34 | 786.8 | 807.96 | 843.57 | 862.84
313.15 K, 30000 kPa | 690.26 | 709.59 | 725.44 | 730.12 | 748.61 | 768.68 | 791.2 | 812.36 | 847.97 | 867.27
313.15 K, 35000 kPa | 694.28 | 713.66 | 729.55 | 734.28 | 752.76 | 772.87 | 795.4 | 816.59 | 852.24 | 871.55
323.15 K, 100 kPa | 650.68 | 669.65 | 685.16 | 689.81 | 708 | 727.88 | 750.16 | 771.11 | 806.56 | 825.76
323.15 K, 2500 kPa | 653.88 | 672.84 | 688.38 | 693.01 | 711.21 | 730.97 | 753.32 | 774.25 | 809.67 | 828.84
323.15 K, 5000 kPa | 657.08 | 676.07 | 691.59 | 696.23 | 714.41 | 734.25 | 756.52 | 777.43 | 812.8 | 831.94
323.15 K, 10000 kPa | 663.04 | 682.03 | 697.57 | 702.21 | 720.41 | 740.23 | 762.49 | 783.36 | 818.69 | 837.82
323.15 K, 15000 kPa | 668.53 | 687.54 | 703.11 | 707.76 | 725.96 | 745.81 | 768.07 | 788.94 | 824.21 | 843.35
323.15 K, 20000 kPa | 673.62 | 692.66 | 708.23 | 712.92 | 731.15 | 751.01 | 773.25 | 794.16 | 829.43 | 848.55
323.15 K, 25000 kPa | 678.38 | 697.47 | 713.06 | 717.75 | 736.01 | 755.88 | 778.17 | 799.07 | 834.36 | 853.47
323.15 K, 30000 kPa | 682.82 | 701.95 | 717.58 | 722.3 | 740.59 | 760.48 | 782.79 | 803.7 | 839.01 | 858.16
323.15 K, 35000 kPa | 687.05 | 706.22 | 721.89 | 726.62 | 744.94 | 764.87 | 787.22 | 808.14 | 843.47 | 862.63
333.15 K, 100 kPa | 640.84 | 659.59 | 674.97 | 679.61 | 697.62 | 717.27 | 739.37 | 760.13 | 795.31 | 814.35
333.15 K, 2500 kPa | 644.37 | 663.28 | 678.48 | 683.13 | 701.13 | 720.76 | 742.8 | 763.57 | 798.68 | 817.7
333.15 K, 5000 kPa | 647.85 | 666.6 | 681.96 | 686.6 | 704.59 | 724.22 | 746.27 | 766.97 | 802.05 | 821.05
333.15 K, 10000 kPa | 654.25 | 673.04 | 688.41 | 693.04 | 711.02 | 730.64 | 752.68 | 773.35 | 808.4 | 827.36
333.15 K, 15000 kPa | 660.12 | 678.96 | 694.34 | 698.97 | 716.97 | 736.59 | 758.64 | 779.29 | 814.33 | 833.22
333.15 K, 20000 kPa | 665.54 | 684.42 | 699.82 | 704.46 | 722.46 | 742.1 | 764.16 | 784.83 | 819.85 | 838.75
333.15 K, 25000 kPa | 670.56 | 689.51 | 704.94 | 709.59 | 727.62 | 747.28 | 769.35 | 790.03 | 825.07 | 843.95
333.15 K, 30000 kPa | 675.27 | 694.27 | 709.73 | 714.38 | 732.45 | 752.13 | 774.27 | 794.94 | 830 | 848.89
333.15 K, 35000 kPa | 679.71 | 698.78 | 714.25 | 718.92 | 737.02 | 756.72 | 778.9 | 799.6 | 834.7 | 853.59
